In US20090143335A1, “MODIFIED ABSORPTION FORMULATION OF GABOXADOL” (H. LUNDBECK A/S, priority 2007, published 2009):

Experiments:
[1] = Pharmacokinetics of gaboxadol in rats after PO dosing, with or without 5-HTP pre-incubation; format: in vivo, Sprague-Dawley rats; conditions: rat; for Cmax: Cmax ± S.E.M.; for Tmax: Tmax ± S.E.M.
Experimental: (§1) The pharmacokinetics (PK) was evaluated in WinNonlin. Plasma concentrations curves of the animals dosed intravenously were fitted to a 2-compartment model whereas the data from animals dosed orally were analysed in a non-compartment model. Statistical analysis was done in Sigma Stat.
(§2) Gaboxadol was extracted from plasma and HBSS^+ samples by liquid extraction. 100 μl HBSS^+ (80 μl purified water were added to the 20 μl samples) or 100 μl plasma samples were mixed with 25 μl intern standard (d4-gaboxadol) and 25 μl purified water. Protein precipitation was carried out by addition of 400 μl cold acetonitrile. After centrifugation at 10,000 g in 15 minutes, 425 μl supernatant was transferred to glass tubes and evaporated to dryness under nitrogen at 45° C. The samples were re-solved in 80 μl methanol/acetonitrile (30:70), whirl mixed for 10 minutes and centrifuged in 3 minutes at 3000 rpm, before transferal to medium well plates and placed at 10° C. in the autosampler. Gaboxadol concentration in the extracted samples was subsequently quantified by hydrophilic interaction chromatography (HILIC-chromatography) followed by MS/MS detection. The LC system comprised of an Agilent 1100 series pump and degasser, a CTC Analytics interface transferred data to the computer and a Peltier Thermostat and HTC Pal autosampler handled the samples. An Asahipak amino column, (NH2P-50, 150×2 mm) from Phenomenex was used for the chromatographic separation with a mobile phase of 20.0 mM ammoniumacetat pH=4:acetonitrile (30:70) and a flow rate of 0.2 ml/min. 20 μL samples were injected onto the column, which was kept at room temperature. The total runtime was 10 minutes with the first 5 minutes of elution let to waste. The elution time of gaboxadol on the column was approximately 8 minutes. The MS/MS system used consisted of a Sciex API 4000 MS/MS detector with a Turbo Ion Spray and Turbo V source (Applied Biosystems). The detection was performed in negative ionization mode where gaboxadol (precursor 139.1 Da, product 110.1 Da) and d4-gaboxadol (precursor 143.0, product 112.2 Da) were measured by multiple-reaction-monitoring (MRM). The signals were linear between 0.5 and 2500.0 ng/ml and the limit of quantification by this procedure was 0.5 ng/ml. The software was from Analyst™ (Applied Biosystem, version 4.0).
0.05 or 0.5 mg gaboxadol as well as 0.0 or 20.0 mg 5-HTP was dissolved in purified water pr ml. at room temperature and placed on ice in ultrasound for 10 min. The formulations were adjusted to pH 4-5 and with NaOH/HCl and made isotonic by addition of mannitol. pH of all solutions was adjusted to pH above 4.0 and below 5.0, the osmolality was adjusted with mannitol to 280 mmol/kg.
(§3) Male Sprague-Dawley rats (Charles River Laboratories, Wilmington, Mass., USA) of 220-240 gram were housed and acclimated for 7 days before entering the experiments. The rats were maintained on standard food and water until 16-20 hours prior to dosing when food was retrieved to insure complete gastric emptying before experiments were conducted. Water was available to the animals until beginning of experiment and again 2 hours after. Each animal was randomly assigned to receive either one of the intravenous or oral formulations.
6 parallel groups of rats (n=6) were given isotonic solutions of 0.5 or 5.0 mg/kg of gaboxadol together with saline or 200.0 mg/kg 5-HTP, by oral gavage (10.0 ml/kg). The suspensions of 5-HTP were given as a pre-incubation 30 min. prior to the gaboxadol solutions.
(§4) Blood samples of 0.2 ml were taken from the tail vein by individual vein puncture and collected into plasma collection tubes containing 20 IE heparin. Samples were collected at 5, 15, 30, 45, 60 minutes and after 2, 3, 4, 6, 8 hours after gaboxadol administration. The plasma was harvested immediately by centrifugation for 10 min. at 3.600 g and stored at −80° C. until further analysis.

[2] = Pharmacokinetics of gaboxadol in rats after IV dosing, with or without 5-HTP pre-incubation; format: in vivo, Sprague-Dawley rats; conditions: rat; for Ke ± S.E.M.: IV gaboxadol 2.5 mg/kg
Experimental: as §1, §2, §3, §4
0.25 mg gaboxadol as well as 0.0 or 10.0 mg 5-HTP was dissolved in purified water pr ml. at room temperature and placed on ice in ultrasound for 10 min. The solutions of gaboxadol used for intravenous injection was filtered through a 0.45 μm filter.
Animals were administered with 100.0 mg/kg 5-HTP or saline by oral gavage 30 min. prior to intravenous injection of 2.5 mg/kg gaboxadol into the tail vein […].

[3] = Pharmacokinetics of gaboxadol in beagle dogs, IV or PO, with or without co-administered tryptophan; format: in vivo; conditions: dog; for bioavailability: Fa (bioavailability)
Experimental: Prior to commencement of the studies the protocols were approved by the Animal Welfare Committee, appointed by the Danish Ministry of Justice and all animal procedures were carried out in compliance with EC Directive 86/609/EEC, the Danish law regulating experiments on animals and NIH Guidelines for the Care and Use of Laboratory Animals. 6 full-grown male beagle dogs (body weight 15.9-21.7 kg) were selected and allocated into a roman quadrant design and assigned to receive all 6 formulations of gaboxadol hydrochloride randomly during 6 weeks. The dogs were fasted 20-24 hours before the initiation of the experiment and fed again 10 hours after the administration. The gaboxadol dose was given either as an intravenous injection (1.0 ml/kg) or as an oral solution given by gavage (5.0 ml/kg) directly into the stomach using a soft tube. All dogs received 2.5 mg/kg gaboxadol. In addition to gaboxadol, the oral formulations contained 0, 2.5, 10.0, 50.0 or 150.0 mg/kg of tryptophan to ensure simultaneous co-administration of the two compounds. All solutions were adjusted to a pH of 5.2 and osmolarity was checked with a Vapro vapour pressure osmometer (model 5520, Wescor Inc. Logan, Utah, USA), the intravenous solutions were adjusted to isoosmolarity with glucose. Blood samples of 2.0 ml were taken from the vena cephalica by individual vein puncture and collected into Eppendorf tubes containing 200 IE heparin as anticoagulant. Samples were collected before administration of gaboxadol and after 5, 15, 30, 60, 90 minutes and 2, 3, 4, 6, 8 and 10 hours after gaboxadol administration. The plasma was harvested immediately by centrifugation for 15 minutes at 2200 g and 4-8° C. and stored at −80° C. until further analysis. After each day of gaboxadol dosing the animals had 6 days of washout.
as §1
as §2, with “The signals were linear between 0.5 and 2500.0 ng/ml and the limit of quantification by this procedure was 0.5 ng/ml. The software was from Analyst™ (Applied Biosystem, version 4.0).” left out

[4] = male, Sprague-Dawley, in vivo, po
[5] = male, Sprague-Dawley, in vivo, po, 0.5 mg/kg
[6] = male, Sprague-Dawley, in vivo, po, 5 mg/kg
[7] = male, Sprague-Dawley, in vivo, iv, 2.5 mg/kg
[8] = male, beagle, in vivo, po, 2.5 mg/kg
[9] = male, beagle, in vivo, po, 10 mg/kg
[10] = male, beagle, in vivo, po, 50 mg/kg
[11] = male, beagle, in vivo, po, 150 mg/kg

Oc1noc2c1CCNC2 [gaboxadol, 4,5,6,7-tetrahydroisoxazolo [5,4-c]pyridine-3-ol]
Tmax ± S.E.M. [1, 4]: 43 min | Cmax ± S.E.M. [1, 5]: 294 ± 39.4 ng/mL | Cmax [1, 5]: 273 ± 26.7 ng/mL | Tmax [1, 5]: 16 min | Cmax ± S.E.M. [1, 6]: 1854 ± 509.4 ng/mL | Cmax [1, 6]: 2060 ± 153 ng/mL | Tmax [1, 6]: 20 min | Tmax [1, 4]: 63 min | AUC increase compared to the control group ([1]; PO gaboxadol 0.5 mg/kg with 5-HTP 200 mg/kg vs without): 540% | AUC increase compared to the control group ([1]; PO gaboxadol 5.0 mg/kg with 5-HTP 200 mg/kg vs without): 330% | gaboxadol elimination rate constant when 5-HTP was present, relative to control ([1]; PO gaboxadol, 5-HTP 200 mg/kg): about 25% | AUC-dose-linearity: AUC of group J relative to group G ([1]; in vivo, 5 mg/kg): ~10 times | Ke ± S.E.M. ([1]; treatment G, PO gaboxadol 0.5 mg/kg, no 5-HTP): 0.0164 ± 0.0021 min⁻¹ | Ke ± S.E.M. ([1]; treatment H, PO gaboxadol 0.5 mg/kg, 5-HTP 200.0 mg/kg 30 min before): 0.0038 ± 0.0004 min⁻¹ | Ke ± S.E.M. ([1]; treatment I, PO gaboxadol 5.0 mg/kg, no 5-HTP): 0.0199 ± 0.0017 min⁻¹ | Ke ± S.E.M. ([1]; treatment J, PO gaboxadol 5.0 mg/kg, 5-HTP 200.0 mg/kg 30 min before): 0.0058 ± 0.0008 min⁻¹ | Cmax ± S.E.M. [2, 7]: 4109 ± 302.6 ng/mL | T1/2 [2, 7]: 44 min | Tmax [2, 7]: 5 min | Tmax ± S.E.M. [2, 7]: 5 ± 0.0 min | Cmax ([2]; male, Sprague-Dawley, in vivo, iv, 2.5 mg/kg, Cmax ± S.E.M.): 2850 ± 312 ng/mL | half-life ([2]; male, Sprague-Dawley, in vivo, iv, 2.5 mg/kg, T1/2): 26 min | AUC-dose-linearity: AUC of group G relative to group K ([2]; in vivo): five times | AUC of group K relative to group L ([2]; in vivo, iv, 2.5 mg/kg): ~3 times | Ke ± S.E.M. ([2]; treatment K, no 5-HTP): 0.0266 ± 0.0008 min⁻¹ | Ke ± S.E.M. ([2]; treatment L, 5-HTP 100 mg/kg by oral gavage 30 min prior): 0.0181 ± 0.0030 min⁻¹ | decrease of maximal gaboxadol plasma concentration, Cmax, by tryptophan coadministration ([3]; PO 2.5 mg/kg gaboxadol, presence vs absence of 150 mg/kg tryptophan, p<0.001): 57% | ke ([3]; group A, IV 2.5 mg gaboxadol/kg, tryptophan 0 mg/kg): 1.02 ± 0.14 h⁻¹ | ke ([3]; group B, PO 2.5 mg gaboxadol/kg, tryptophan 0 mg/kg): 0.46 ± 0.02 h⁻¹ | ke ([3]; group C, PO 2.5 mg gaboxadol/kg, tryptophan 2.5 mg/kg): 0.50 ± 0.03 h⁻¹ | ke ([3]; group D, PO 2.5 mg gaboxadol/kg, tryptophan 10 mg/kg): 0.44 ± 0.03 h⁻¹ | ke ([3]; group E, PO 2.5 mg gaboxadol/kg, tryptophan 50 mg/kg): 0.50 ± 0.03 h⁻¹ | ke ([3]; group F, PO 2.5 mg gaboxadol/kg, tryptophan 150 mg/kg): 0.48 ± 0.07 h⁻¹ | effect of tryptophan coadministration on elimination rate constants (ke) and clearance (CL) of gaboxadol ([3]; in vivo, po): did not change | clearance ([3]; male, beagle, in vivo, iv, 2.5 mg/kg): 7.6 mL/min/kg | AUC ([3]; male, beagle, in vivo, iv, 2.5 mg/kg, AUC): 5620 ± 377 ng·h/mL | Cmax ([3]; male, beagle, in vivo, iv, 2.5 mg/kg, Cmax): 5490 ± 404 ng/mL | AUC [3, 8]: 4760 ± 350 ng·h/mL | Cmax [3, 8]: 2473 ± 178 ng/mL | Fa (bioavailability) [3, 8]: 86.1% | Tmax [3, 8]: 21 ± 7.8 min | AUC ([3]; male, beagle, in vivo, po, 2.5 mg/kg, AUC): 4720 ± 248 ng·h/mL | Cmax ([3]; male, beagle, in vivo, po, 2.5 mg/kg, Cmax): 2500 ng/mL | bioavailability [3, 8]: 85.3 ± 5.7% | Tmax ([3]; male, beagle, in vivo, po, 2.5 mg/kg, Tmax): 27.6 min | CL [3, 9]: 645 ± 59 mL/h/kg | AUC ([3]; male, beagle, in vivo, po, 10 mg/kg, AUC): 4030 ± 339 ng·h/mL | Cmax ([3]; male, beagle, in vivo, po, 10 mg/kg, Cmax): 1870 ± 114 ng/mL | bioavailability [3, 9]: 75% | Tmax ([3]; male, beagle, in vivo, po, 10 mg/kg, Tmax): 32.4 ± 9 min | CL [3, 10]: 589 ± 26 mL/h/kg | AUC ([3]; male, beagle, in vivo, po, 50 mg/kg, AUC): 4290 ± 211 ng·h/mL | Cmax ([3]; male, beagle, in vivo, po, 50 mg/kg, Cmax): 1660 ± 37 ng/mL | bioavailability [3, 10]: 78.2 ± 6.3% | Tmax ([3]; male, beagle, in vivo, po, 50 mg/kg, Tmax): 27.6 ± 7.2 min | CL [3, 11]: 700 ± 152 mL/h/kg | AUC ([3]; male, beagle, in vivo, po, 150 mg/kg, AUC): 4400 ± 801 ng·h/mL | Cmax ([3]; male, beagle, in vivo, po, 150 mg/kg, Cmax): 1420 ng/mL | bioavailability [3, 11]: 79.7 ± 14.5% | Tmax ([3]; male, beagle, in vivo, po, 150 mg/kg, Tmax): 90 min
